The record followed here is ChEMBL document CHEMBL1201862, “PubChem BioAssay data set” (2004).

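How tested: cells in 96-well plates exposed to compound for 48 hours at five concentrations. GI50: concentration for 50% inhibition of growth.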 Calls of active or inactive are those of the source. No stated cut-off is given here; in the data, active = GI50 up to about 1.1 µM and inactive = higher.

Experiment in all cases: DTP human tumour cell line panel, 48 h
Test [1] relates to TK-10.
Test [2] has as its system DU-145.
For test [3], the system named is SNB-19.
For test [4], the system named is MDA-N.
Test [5] concerns HOP-62.
The subject of test [6] is ACHN.
The test system of test [7] is RPMI-8226.
In test [8] the test system is SF-268.
The subject of test [9] is SW-620.
Test [10] deals with HL-60.
Test [11] relates to UACC-62.
Test [12] has as its system SF-295.
Test [13] deals with NCI/ADR-RES.
The test system of test [14] is A549.
The test system of test [15] is SK-MEL-5.
The test system of test [16] is CAKI-1.
The subject of test [17] is MCF7.
Test [18] has as its system PC-3.
Test [19] relates to SN12C.
Test [20] has as its system OVCAR-8.

`CC(=O)O[C@H]1C#C/C=C\C#CC[C@@H]2C(=O)N(C(=O)OC(C)(C)C)[C@@H]12`: the GI50 was > 55.1 µM (inactive) in test [1]; 19.9 µM (inactive) in [2]; 18.7 µM (inactive) in test [3]; 39.4 µM (inactive) in test [4]; 7.11 µM (inactive) in test [5]; 4 µM (inactive) in [6]. Besides, the GI50 in test [7] was 16.2 µM (inactive); in [8], 16.8 µM (inactive); in test [9] it was 48.8 µM (inactive); in [10], 2.45 µM (inactive); in test [11] it was 14.8 µM (inactive); in test [12], 21.3 µM (inactive). For the same compound, the GI50 is 15.7 µM (inactive) in test [13]; 16.6 µM (inactive) in [14]; 18.2 µM (inactive) in [15]; 6.46 µM (inactive) in test [16]; 2.34 µM (inactive) in test [17]; > 67.3 µM (inactive) in test [18]. Also, the GI50 in test [19] is 18.8 µM (inactive); in test [20], 14.5 µM (inactive).
On to `Cn1c2ccc(F)cc2c2ccc3c(c21)C(=O)C=CC3=O`, for which the GI50 in test [1] was 4.56 µM (inactive); in test [2] it was 22 µM (inactive); in test [3], 50.8 µM (inactive); in [4] it was 13.3 µM (inactive); in test [5], > 66.5 µM (inactive); in test [6], 5.85 µM (inactive). The GI50 in test [7] was 6.93 µM (inactive); in test [8] it was 21 µM (inactive); in test [9] it was 2.66 µM (inactive); in test [10], 0.598 µM (active); in test [11], 20.5 µM (inactive); in test [12], 66.1 µM (inactive). In addition, the GI50 in test [13] was 20.2 µM (inactive); in [14], > 64.1 µM (inactive); in test [15] it was 16.9 µM (inactive); in test [16] it was 4.23 µM (inactive); in test [17], 2.2 µM (inactive); in test [18] it was 8.67 µM (inactive). Also, the GI50 in test [19] is 15.4 µM (inactive); in [20], 9.35 µM (inactive).
Regarding `O=C(NCc1cccs1)OC1CC2CCC1C2` (stereo not given), the GI50 in test [1], in test [2], in test [3], in test [4], in [5] and in test [6] was > 100 µM (inactive) each time. The GI50 in test [7], in test [8], in test [9], in [10], in test [11] and in [12] was > 100 µM (inactive) in each case. Besides, the GI50 in test [13], in test [14], in [15], in [16], in test [17] and in [18] was > 100 µM (inactive) throughout. Moreover, the GI50 in test [19] and in test [20] was > 100 µM (inactive) in each case.
As for `CC(=O)OC1CC2CC(=O)CC1N2C` (stereo not given), the GI50 in [1], in test [2], in test [3], in [4], in test [5] and in test [6] was > 100 µM (inactive) throughout. The GI50 in [7] was 68.7 µM (inactive); in test [8], > 100 µM (inactive); in test [9] it was > 100 µM (inactive); in test [10], > 100 µM (inactive); in [11] it was > 100 µM (inactive); in test [12] it was > 100 µM (inactive). Besides, the GI50 in [13], in test [14], in test [15], in [16], in test [17] and in [18] was > 100 µM (inactive) in each case. Also, the GI50 in [19] and in [20] was > 100 µM (inactive) throughout.

As usually defined, the GI50 is the concentration that inhibits growth by half.
